In patent US11618743B2, “Herbicidal compounds” (SYNGENTA PARTICIPATIONS AG, priority 2017, dated 2023):

What was measured:
Assay in all cases: Post-emergence efficacy, Method C
Format in all cases: in vivo
Settings in all cases: Application Rate 400 g/Ha, evaluated at 21 days
[1] = tested on: Echinochloa crus-galli (ECHCG)
Protocol: (§1) An “instant formulation”, known as the IF50, containing 50 g/L of the “technical” (i.e. unformulated) active ingredient was prepared by dissolving the active ingredient in a mixture of organic solvents and emulsifier, details of which are provided in the table. This IF50 was then mixed with a small, variable amount of acetone to aid dissolution, before addition of a 1% v/v aqueous solution of the adjuvant Empicol ESC70 3EO (Sodium lauryl ether sulphate) and 1% v/v Ammonium sulphate, as the aqueous diluent, to form an aqueous spray solution which contains a predetermined concentration of the active ingredient (which varies depending on the application rate of the active ingredient to the plants).
(§2) Composition of the mixture of organic solvents and emulsifier used as a base for the instant formulation.
(§3) This aqueous spray solution was then sprayed onto the plants after about 21 days' cultivation. The plants were grown from seeds sown in standard soil, placed in a glasshouse under controlled conditions (at 24/18° C., day/night; 14 hours light; 65% humidity). After spray application the plants were then grown on in a glasshouse under the same conditions and watered twice daily. The test was evaluated at 21 days (100=total damage to plant; 0=no damage to plant).
(§4) Ipomoea hederacea (IPOHE), Amaranthus palmeri (AMAPA), Lolium perenne (LOLPE), Eleusine indica (ELEIN), Echinochloa crus-galli (ECHCG), Conyza canadensis (ERICA)

[2] = tested on: Ipomoea hederacea (IPOHE)
Protocol: as §1, §2, §3, §4

[3] = tested on: Amaranthus palmeri (AMAPA)
Protocol: as §1, §2, §3, §4

Lolium perenne (LOLPE) = tested on: Lolium perenne (LOLPE)
Protocol: as §1, §2, §3, §4

[4] = tested on: Conyza canadensis (ERICA)
Protocol: as §1, §2, §3, §4

SMILES | Control of weed species after post-emergence application, ECHCG (100=total damage to plant; 0=no damage to plant) [1] | Control of weed species after post-emergence application, IPOHE (100=total damage to plant; 0=no damage to plant) [2] | Control of weed species after post-emergence application, AMAPA (100=total damage to plant; 0=no damage to plant) [3] | Control of weed species after post-emergence application, LOLPE (100=total damage to plant; 0=no damage to plant) (Lolium perenne (LOLPE)) | Control of weed species after post-emergence application, ERICA (100=total damage to plant; 0=no damage to plant) [4]
O=S(=O)([O-])C[n+]1ccc(-c2ncccn2)cn1 [Compound A3, (4-pyrimidin-2-ylpyridazin-1-ium-1-yl)methanesulfonate] | 13 | – | – | – | –
Cl.O=S(=O)([O-])CC[n+]1ccc(-c2ccncc2)cn1 [Compound A27] | 43 | 90 | 77 | 68 | 65
